Measurements taken from US9982033B2, “Factor VIII polypeptide titers in cell cultures” (Novo Nordisk A/S, priority 2007, dated 2018).

Tests used:
[1] = tested on: Factor VIII producing cells; assay: Supplementing serum-free cell culture medium of Factor VIII producing cells with OPLS (high-cell density perfusion model); type: cell-based, Chinese Hamster; conditions: for Factor VIII productivity / Factor VIII protein specific activity: 24 hours, 35° C.
Text: Cell line: The cell line used for transfection, dhfr− CHO cells DUKX-B11 cells (Urlaub, G. & Chasin, L. A. (1980) Proc. Natl. Acad. Sci. USA 77, 4216-4220), was adapted to grow in suspension cultures using serum-free medium supplemented with ribonucleosides and deoxyribonucleosides.
Expression vector: Factor VIII transcription is achieved using an adenovirus-SV40 promoter and a selection by a di-hydrofolate reductase selection marker. The expressed Factor VIII molecule consist of the heavy chain (HC) and light chain (LC) of Factor VIII connected with a small linker derived from the B-domain. The B-domain has been removed, since this allows for higher expression of Factor VIII and the biological activity of Factor VIII is retained.
Cell culturing during serum free medium supplementation experiments: For media supplement experiments cells were cultivated in a high-cell density perfusion model in 50 mL shaker tubes with vented cap at 35° C. in serum free medium, as described below. Cells were cultivated in large shaker flasks at 37° C. Cell viability was measured at cell harvest, and this was always >95%. Harvested cells were re-suspended into fresh medium. 2.5 mL of the harvested and re-suspended cells was added to 2.5 mL of fresh medium containing the supplement to give a total volume of 5 mL, with a concentration of 1×10^7 cells/mL. Shaker tubes were then placed in shaker at 35° C. and 250 rpm. After 24 hours, samples were assayed for cell density, viability, CoA, ELISA and Factor VIII protein integrity by Western blot.
CoA assay (Factor VIII activity assay): In the presence of calcium and phospholipids, Factor X is activated to Factor Xa by Factor IXa. This generation is greatly stimulated by Factor VIII, which may be considered as a cofactor in this reaction. By using optimal amounts of Ca^2+ and phospholipids and an excess of Factors IXa and X, the rate of activation of Factor X is solely dependent on the amount of Factor VIII. Factor Xa hydrolyses the chromogenic substrate S-2765 thus liberating the chromophoric group, pNA. The colour is then read photometrically at 405 nm. The generated Factor Xa and thus the intensity of colour is proportional to the Factor VIII activity in the sample. Hydrolysis of S-2765 by thrombin formed is prevented by the addition of the synthetic thrombin inhibitor, I-2581, together with the substrate (Chromogenix Coatest SP Factor VIII, diaPharma)
ELISA: Strip wells are pre-coated with sheep polyclonal antibody to human Factor VIII. Samples are diluted and applied to the wells. The Factor VIII antigen present binds to the coated antibody. After washing away unbound material, peroxidase-labeled sheep detecting antibody is applied and allowed to bind to the captured Factor VIII. The wells are again washed and a solution of TMB (the peroxidase substrate tetramethylbenzidine) is applied and allowed to react for a fixed period of time. A blue color develops which changes to yellow upon quenching the reaction with acid. The color formed is measured spectrophotometrically in a microplate reader at 450 nm. The absorbance at 450 nm is directly proportional to the quantity of Factor VIII antigen captured onto the well (VisuLize, FVIII antigen kit, Affinity biologicals). The assay is calibrated using purified B domain deleted Factor VIII.
OPLS was supplemented to serum free cell culture medium in the indicated concentration according to the experimental details described under materials and methods. The results can be seen from the below Table 3 and from FIGS. 2A and 2B.

[2] = tested on: BDD Factor VIII producing cells (1C5-SF cell line); assay: Supplementing serum-free medium of BDD Factor VIII producing cells with O-phospho-L-serine and/or a plant hydrolysate; type: cell-based; conditions: O-phospho-L-serine 20 mM and/or plant hydrolysate 5 mg/ml, four days after seeding
Experimental: ELISA: Strip wells are pre-coated with sheep polyclonal antibody to human Factor VIII. Samples are diluted and applied to the wells. The Factor VIII antigen present binds to the coated antibody. After washing away unbound material, peroxidase-labeled sheep detecting antibody is applied and allowed to bind to the captured Factor VIII. The wells are again washed and a solution of TMB (the peroxidase substrate tetramethylbenzidine) is applied and allowed to react for a fixed period of time. A blue color develops which changes to yellow upon quenching the reaction with acid. The color formed is measured spectrophotometrically in a microplate reader at 450 nm. The absorbance at 450 nm is directly proportional to the quantity of Factor VIII antigen captured onto the well (VisuLize, FVIII antigen kit, Affinity biologicals). […]
F25 ELISA: ELISA: Strip wells are pre-coated with sheep polyclonal antibody to human Factor VIII. […] The color formed is measured spectrophotometrically in a microplate reader at 450 nm. The absorbance at 450 nm is directly proportional to the quantity of Factor VIII antigen captured onto the well. […]
The total Factor VIII antigen content of each culture was determined by sandwich ELISA. […]

[3] = OPLS 0.03 mM in serum free medium
[4] = OPLS 0.1 mM in serum free medium
[5] = OPLS 0.3 mM in serum free medium
[6] = OPLS 10 mM in serum free medium
[7] = OPLS 30 mM in serum free medium

N[C@@H](COP(=O)(O)O)C(=O)O [OPLS, O-Phospho-L-Serine]
Factor VIII productivity [1, 3]: 0.068 pcd
Factor VIII protein specific activity [1, 3]: 11.8 U/microg
Factor VIII productivity [1, 4]: 0.062 pcd
Factor VIII protein specific activity [1, 4]: 12.8 U/microg
Factor VIII productivity [1, 5]: 0.052 pcd
Factor VIII protein specific activity [1, 5]: 12.2 U/microg
Factor VIII productivity ([1]; OPLS 1 mM in serum free medium): 0.058 pcd
Factor VIII protein specific activity ([1]; OPLS 1 mM in serum free medium): 12.6 U/microg
Factor VIII productivity ([1]; OPLS 3 mM in serum free medium): 0.066 pcd
Factor VIII protein specific activity ([1]; OPLS 3 mM in serum free medium): 15.8 U/microg
Factor VIII productivity [1, 6]: 0.10 pcd
Factor VIII protein specific activity [1, 6]: 15.4 U/microg
Factor VIII productivity [1, 7]: 0.18 pcd
Factor VIII protein specific activity [1, 7]: 15.0 U/microg
specific productivity of Factor VIII producing cells ([1]; conclusion in words, FIG. 2A): increases
specific activity of Factor VIII ([1]; conclusion in words, FIG. 2B): increases
proportion of Factor VIII with intact heavy chain C-terminal in the medium ([2]; F25 ELISA versus total Factor VIII antigen): increased
quality of recombinant Factor VIII from cell cultures (specific activity) ([2]; CDM4CHO medium, FIG. 3A-C): improved
yield of recombinant Factor VIII from cell cultures ([2]; CDM4CHO medium, FIG. 3A-C): improved
